# Test results from US4263286A, “Therapeutic agent for consciousness disorder and perception and movement disorder” (Nippon Shoji Kaisha, Ltd., priority 1978, dated 1981).
# Where a name gives a salt, the structure may show the parent alone.
# Experiments:
# [1] = test system: rabbits whose internal capsule was destroyed; conditions: known therapeutic agents; already confirmed by experiments; cited from earlier work
# [2] = test system: sciatic nerve; experiment: Afferent evoked potential in the cerebral cortex in response to stimulation of the sciatic nerve; assay type: in vivo
# Protocol: In order to test the effect of the active compound of the present invention on perception, an experiment was carried out on afferent evoked potential in response to stimulation of the sciatic nerve.
# When the sciatic nerve is stimulated, the potential evoked in the cerebral cortex is recorded and summed up. These evoked electric potentials are firstly three small negative responses, subsequently a positive response and followed by two large negative responses, which are designated as N1, N2, N3, P, N4 and N5, respectively.
# In order to examine the effect of a compound of the present invention: dilinoleoylphosphatidic acid disodium salt on these components, N1, N2, N3, P, N4 and N5, sciatic nerve was simulated once per 1 second and the data of 50 times of stimulus were recorded and summed up. The results are shown in the accompanying FIGS. 15, 16, 17, 18, 19 and 20 which correspond to the data of N1, N2, N3, P, N4 and N5, respectively.
# [3] = test system: male mice; experiment: Toxicity in male mice, tail intravenous; assay type: in vivo, mouse; conditions: 100 mg/kg tail intravenous over 30 seconds; observed 75 hours
# [4] = test system: ICR mice; experiment: 7-day toxicity in ICR mice; conditions: mouse, in vivo
# [5] = test system: Spragne-Dowley rats; experiment: 7-day toxicity in rats; conditions: rat, in vivo
compound,measurement,setting,value
"C[N+](C)(C)CCOP(=O)(O)OP(=O)([O-])OC[C@H]1O[C@@H](n2ccc(N)nc2=O)[C@H](O)[C@@H]1O [Citicoline, cytidine diphosphate choline]",effect on thresholds of evoked muscular discharge in fore- and hind-limbs,[1],decreasing effect of the thresholds of evoked muscular discharge
"CN(C)CCOC(=O)COc1ccc(Cl)cc1.Cl [Meclofenoxate hydrochloride, (4-chlorophenoxy)acetic acid 2-(dimethylamino)ethyl ester hydrochloride]",effect on thresholds of evoked muscular discharge in fore- and hind-limbs,[1],decreasing effect of the thresholds of evoked muscular discharge
"Cc1ncc(CSSCc2cnc(C)c(O)c2CO)c(CO)c1O [Pyrithioxin, 3,3'-(dithiodimethylene)-bis[5-hydroxy-6-methyl-4-pyridinemethanol]]",effect on thresholds of evoked muscular discharge in fore- and hind-limbs,[1],decreasing effect of the thresholds of evoked muscular discharge
CCCCC/C=C\C/C=C\CCCCCCCC(=O)OCC(COP(=O)(O)O)OC(=O)CCCCCCC/C=C\C/C=C\CCCCC (centres unmarked) [dilinoleoylphosphatidic acid disodium salt],effect on the afferent pathway,[2]; in vivo,facilitatory effect on the afferent pathway
same,effect on evoked potential components N1 and N2,"[2]; stimulation once per 1 second, 50 summed, FIGS. 15, 16","facilitatory effect on the components, N1 and N2, particularly on N1"
same,mortality,[3],no mouse was died
Cytochrome C: already used as therapeutic agent for the treatment of consciousness disorder and perception and movement disorder,effect on thresholds of evoked muscular discharge in fore- and hind-limbs,[1],decreasing effect of the thresholds of evoked muscular discharge
polyenephosphatidylcholine,difference between male and female,[4],no difference between male and female
same,symptoms,[4],no abnormal symptom was observed except that the voluntary movement was slightly inhibited in the groups administered in a large dose
same,difference between male and female,[5],no difference between male and female
same,symptoms,[5],no abnormal symptom was observed except that the voluntary movement was slightly inhibited in the groups administered in a large dose
